Measurements reported in patent US20260294884A1 (Insilico Medicine IP Limited, priority 2023, published 2026).

Experiments:
KAT6A = biological target: T1, KAT6A (Homo sapiens, UniProt Q92794); experiment: KAT6A biochemical assay (radiometric [3H]-acetyl CoA, biotinylated H4 (1-30) peptide); conditions: 60 min reaction, room temperature
T1 construct: purchased Active Motif
Procedure: Inhibition of KAT6A enzymatic activity by test compounds was determined using a radiometric 384-well format assay. A 10-point serial dilution of the test compounds were conducted in DMSO and then a volume of 200 nL was transferred into 384-well assay plate by Echo (Labcyte). 10 μL of 2×enzyme solution (5 nM KAT6A (Active Motif) in assay buffer (50 mM Tris —HCl pH 8.0, 50 mM KCl, 0.1 mM EDTA, 5% glycerol, 1 mM DTT)) was dispensed into assay plate except for low control wells, in which 10 μL of assay buffer was transferred. The plate was incubated at room temperature for 15 min before addition of 10 μL of 2×[^3H]-acetyl coenzyme A (Ac-COA) and substrate peptide mix solution (500 nM (KAT6A) [^3H]-Ac-COA (PerkinElmer) and 800 nM (KAT6A) biotinylated H4 (1-30) peptide (GL Biochem) in assay buffer) to each well to start reaction. The plate was incubated at room temperature for 60 min (KAT6A), and then the reaction was stopped by adding 10 μL of stop solution (cold Ac-COA (Cayman) in 1×assay buffer). […] The plate was read on Microbeta and the inhibition percentage of each compound treated well was calculated based on the equation inh %=(Max-sample)/(Max-Min)*100 where Max is signal from high control wells with enzyme, and Min is signal from low control wells with assay buffer only. […]

[1] = Kinetic solubility in 50 mM phosphate buffer (pH 7.4); format: physicochemical; conditions: versus compound 47
Procedure: 10 μL of 10 mM in DMSO of test and control compounds was added into lower chambers of whatman miniuniprep vials, respectively. 490 μL of 50 mM PB (pH 7.4) was added into lower chambers of the whatman miniuniprep vials, respectively. The solubility samples were vortexted for at least 2 minutes. The miniuniprep vials were shaken on a shaker for 24 hours at room temperature at the speed of 800 rpm and then centrifuged for 20 minutes (eg. 4000 rpm). The miniunipreps were compressed to prepare the filtrates for injection into HPLC system to calculate the concentration with standard curve.

Caco-2 cells = experiment: Permeability, Caco-2 assay; format: in vitro ADME
Procedure: Permeability of test compounds was determined in Caco-2 Assay. Caco-2 cells purchased from ATCC were seeded onto […] membranes (PET) in 96-well Corning Insert plates at 1×10^5 cells/cm^2, and refreshed medium every 4~5 days until to the 21st to 28th day for confluent cell monolayer formation. The transport buffer in the study was HBSS with 10.0 mM HEPES at pH 7.40±0.05. Test compound was tested at […] bi-directionally in duplicate. Digoxin was tested at 10.0 μM bi-directionally in duplicate, while nadolol and metoprolol were tested at 2.00 μM in A to B direction in duplicate. Final DMSO concentration was adjusted to less than 1%. The plate was incubated for 2 hours in CO2 incubator at 37±1° C., with 5% CO2 at saturated humidity without shaking. And all samples after mixed with acetonitrile containing internal standard were centrifuged at 3200×g for 10 min. For nadolol and metoprolol, 200 μL supernatant solution was diluted with 600 μL ultra-pure water for LC-MS/MS analysis. For digoxin and test compounds, 200 μL supernatant solution was diluted with 200 μL ultra-pure water for LC-MS/MS analysis. Concentrations of test and control compounds in starting solution, donor solution, and receiver solution were quantified by LC-MS/MS methodologies, using peak area ratio of analyte/internal standard. After transport assay, lucifer yellow rejection assay was applied to determine the Caco-2 cell monolayer integrity.

T1 sequence (Q92794 whole entry): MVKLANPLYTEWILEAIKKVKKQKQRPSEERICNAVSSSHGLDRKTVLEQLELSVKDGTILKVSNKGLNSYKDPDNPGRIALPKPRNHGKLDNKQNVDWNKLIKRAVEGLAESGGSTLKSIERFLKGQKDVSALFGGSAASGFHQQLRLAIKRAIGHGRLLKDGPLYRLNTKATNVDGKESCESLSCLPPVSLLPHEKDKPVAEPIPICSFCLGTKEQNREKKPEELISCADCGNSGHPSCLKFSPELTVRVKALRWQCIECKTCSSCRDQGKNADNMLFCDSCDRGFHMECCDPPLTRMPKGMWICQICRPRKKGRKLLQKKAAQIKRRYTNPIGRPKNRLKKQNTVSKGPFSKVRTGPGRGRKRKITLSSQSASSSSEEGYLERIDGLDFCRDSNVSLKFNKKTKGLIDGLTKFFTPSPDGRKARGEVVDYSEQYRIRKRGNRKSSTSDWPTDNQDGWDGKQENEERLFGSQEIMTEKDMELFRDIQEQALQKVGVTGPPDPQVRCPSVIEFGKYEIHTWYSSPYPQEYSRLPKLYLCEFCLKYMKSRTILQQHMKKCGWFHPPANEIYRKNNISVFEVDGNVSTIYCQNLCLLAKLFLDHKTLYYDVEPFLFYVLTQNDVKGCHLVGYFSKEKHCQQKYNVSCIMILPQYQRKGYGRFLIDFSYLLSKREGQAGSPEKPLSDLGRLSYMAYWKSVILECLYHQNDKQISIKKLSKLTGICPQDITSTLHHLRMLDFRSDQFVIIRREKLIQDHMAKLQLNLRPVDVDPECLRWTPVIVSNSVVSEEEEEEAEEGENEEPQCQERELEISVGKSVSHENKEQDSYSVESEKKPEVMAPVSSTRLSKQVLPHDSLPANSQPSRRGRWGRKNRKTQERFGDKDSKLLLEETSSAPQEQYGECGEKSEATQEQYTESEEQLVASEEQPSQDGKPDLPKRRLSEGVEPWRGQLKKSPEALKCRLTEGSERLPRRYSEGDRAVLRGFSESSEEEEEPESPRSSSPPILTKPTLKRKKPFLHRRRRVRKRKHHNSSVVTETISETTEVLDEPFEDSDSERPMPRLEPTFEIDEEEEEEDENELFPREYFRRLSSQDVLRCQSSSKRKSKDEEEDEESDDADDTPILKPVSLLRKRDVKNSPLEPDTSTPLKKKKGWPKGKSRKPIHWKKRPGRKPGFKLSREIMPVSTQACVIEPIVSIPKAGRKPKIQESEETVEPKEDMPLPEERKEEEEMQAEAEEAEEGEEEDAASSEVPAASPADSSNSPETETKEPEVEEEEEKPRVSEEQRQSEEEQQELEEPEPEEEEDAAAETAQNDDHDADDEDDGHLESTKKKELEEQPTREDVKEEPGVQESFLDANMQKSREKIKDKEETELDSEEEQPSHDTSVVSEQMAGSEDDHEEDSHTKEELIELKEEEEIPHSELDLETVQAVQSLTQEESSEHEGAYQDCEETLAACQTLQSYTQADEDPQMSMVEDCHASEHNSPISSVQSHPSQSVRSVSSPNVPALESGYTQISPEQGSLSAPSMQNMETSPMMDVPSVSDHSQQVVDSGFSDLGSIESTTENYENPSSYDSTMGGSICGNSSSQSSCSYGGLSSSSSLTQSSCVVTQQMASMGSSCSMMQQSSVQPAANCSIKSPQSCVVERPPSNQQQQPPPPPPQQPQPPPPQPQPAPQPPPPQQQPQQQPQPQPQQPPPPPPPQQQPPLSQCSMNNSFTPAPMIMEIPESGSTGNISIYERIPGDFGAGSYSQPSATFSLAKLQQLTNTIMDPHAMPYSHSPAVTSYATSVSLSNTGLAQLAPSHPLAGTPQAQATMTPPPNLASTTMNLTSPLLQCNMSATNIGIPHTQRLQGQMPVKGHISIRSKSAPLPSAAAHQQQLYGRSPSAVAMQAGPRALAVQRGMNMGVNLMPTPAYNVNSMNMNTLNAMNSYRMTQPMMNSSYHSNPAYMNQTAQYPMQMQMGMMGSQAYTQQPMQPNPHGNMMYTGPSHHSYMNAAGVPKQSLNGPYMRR

kinetic solubility, comparison with otherwise identical compound having X as carbon [1]	Mean Papp A to B (Caco-2 cells; Caco-2, pH 7.40, 2 hours, 37 °C, A to B)	permeability, comparison with corresponding compound having X as carbon (Caco-2 cells; versus compound 47)	Compound	IC50 (KAT6A) [µM]
–	–	–	COc1cccc(OC)c1S(=O)(=O)Nc1noc2cc(Oc3cccnn3)cc(OC(F)F)c12 [Compound 29, N-(4-(difluoromethoxy)-6-(pyridazin-3-yloxy)benzo[d]isoxazol-3-yl)-2,6-dimethoxybenzenesulfonamide]	0.1 to 1
improved kinetic solubility	8.59 10^-6 cm/s	improved permeability	COc1cccc(OC)c1S(=O)(=O)Nc1noc2cc(Oc3nccs3)c3c(c12)OCCC3 [Compound 35, 2,6-dimethoxy-N-(5-(thiazol-2-yloxy)-3,4-dihydro-2H-chromeno[8,7-d]isoxazol-9-yl)benzenesulfonamide]	–
–	–	–	COc1ccccc1S(=O)(=O)Nc1noc2cc(Oc3ccccn3)cc(OC(F)F)c12 [Compound 27, N-(4-(difluoromethoxy)-6-(pyridin-2-yloxy)benzo[d]isoxazol-3-yl)-2-methoxybenzenesulfonamide]	0.1 to 1
